# Test results as given in article PMC10506422 (Biomedicine & pharmacotherapy = Biomedecine & …, 2022).
# Target: T1, ABCG2 (Homo sapiens, UniProt Q9UNQ0)
# T1 sequence (Q9UNQ0 1-655): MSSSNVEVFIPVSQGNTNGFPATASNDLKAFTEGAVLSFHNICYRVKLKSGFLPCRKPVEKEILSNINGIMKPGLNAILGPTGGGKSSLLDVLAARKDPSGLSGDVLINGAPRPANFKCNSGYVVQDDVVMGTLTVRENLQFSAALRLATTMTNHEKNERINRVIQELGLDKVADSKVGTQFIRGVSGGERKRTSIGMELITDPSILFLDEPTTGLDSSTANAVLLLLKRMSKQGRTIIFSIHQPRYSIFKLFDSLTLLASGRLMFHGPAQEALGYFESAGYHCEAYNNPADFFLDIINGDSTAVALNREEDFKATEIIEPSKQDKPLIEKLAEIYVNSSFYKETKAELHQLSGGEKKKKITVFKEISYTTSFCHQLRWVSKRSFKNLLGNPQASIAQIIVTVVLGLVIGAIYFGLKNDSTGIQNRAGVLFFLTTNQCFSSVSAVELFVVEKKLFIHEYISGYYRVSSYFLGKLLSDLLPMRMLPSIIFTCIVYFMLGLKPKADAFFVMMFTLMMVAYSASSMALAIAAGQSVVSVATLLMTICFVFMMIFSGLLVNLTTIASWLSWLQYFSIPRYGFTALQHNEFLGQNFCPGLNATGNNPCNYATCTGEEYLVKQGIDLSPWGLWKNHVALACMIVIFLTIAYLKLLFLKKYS
# Test: fluorescent substrate efflux/accumulation by flow cytometry
# Format: cell-based
structure (smiles),measurement,value
C=Cc1c(C)c2cc3nc(c4c5[nH]c(cc6nc(cc1[nH]2)C(C)=C6CC)c(C)c5C(=O)[C@@H]4C(=O)OC)[C@@H](CCC(=O)O)[C@@H]3C [pheophorbide A],fluorescent substrate efflux/accumulation by flow cytometry (1 μM PhA),"The intracellular accumulation of pheophorbide A (PhA), a known fluorescent substrate drug of ABCG2, was determined"
